Laboratory results taken from patent US7750135B2, “Molecular design of thermostable alcohol dehydrogenase for synthesis for chiral aromatic alcohols” (Board of Trustees of Michigan State University, priority 2007, dated 2010).
Read-outs that look alike come from different tables or passages of the source.

What was measured:
wild-type (WT) TeSADH = target: T1, wild-type (WT) TeSADH (Thermoanaerobacter brockii, UniProt P14941, A186D); format: biochemical, Thermoanaerobacter ethanolicus; conditions: 60° C., 1 min, 50 mM Tris-HCl pH~6.5 (ketones) or pH~8.0 (alcohols), 0.4 mM NADP(H)
T1 construct: made in house; the wild-type adhB gene sat in plasmid pADHBIM1-kan
T1 sequence (P14941 whole entry A186D): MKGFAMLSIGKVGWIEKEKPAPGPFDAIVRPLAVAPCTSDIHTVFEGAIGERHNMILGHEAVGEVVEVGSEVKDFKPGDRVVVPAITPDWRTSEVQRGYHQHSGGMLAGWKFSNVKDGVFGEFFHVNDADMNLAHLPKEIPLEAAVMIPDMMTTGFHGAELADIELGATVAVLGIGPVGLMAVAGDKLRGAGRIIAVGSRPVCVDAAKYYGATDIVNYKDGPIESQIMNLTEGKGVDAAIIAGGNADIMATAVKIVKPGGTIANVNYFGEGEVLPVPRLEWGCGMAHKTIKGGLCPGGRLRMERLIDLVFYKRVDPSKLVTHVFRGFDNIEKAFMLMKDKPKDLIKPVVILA
Procedure: (§1) J. 302:163-170), with (rac)-2-butanol, (rac)-1-phenethyl alcohol, (rac)-1-phenyl-2-propanol, (rac)-4-phenyl-2-butanol, and phenylacetone as substrates. Assays were done in the presence of 50 mM Tris-HCl [pH 8.0] and 0.4 mM NADP^+ (alcohol oxidation), or pH 6.5 and 0.4 mM NADPH (ketone reduction). Initial velocity was measured spectrophotometrically at 60° C. by following NADPH production (alcohol oxidation) or consumption (ketone reduction) at 340 nm for 1 min in a Varian Cary 300 UV/Vis spectrophotometer equipped with a Peltier heating system. The enzyme was preincubated for at least 5 min at 40° C. before being added to the assays. […] One unit of activity was defined as the amount of enzyme needed to consume or produce 1 μmol of NADPH per minute.

Y267G TeSADH = target: T2, Y267G TeSADH (Thermoanaerobacter brockii, UniProt P14941, A186D/Y267G); format: biochemical, Thermoanaerobacter ethanolicus; conditions: heat-treated crude extracts
T2 construct: His6 (C); made in house; host or cells: E. coli, pET24a(+); heat-treated crude extract
T2 sequence (P14941 whole entry A186D/Y267G): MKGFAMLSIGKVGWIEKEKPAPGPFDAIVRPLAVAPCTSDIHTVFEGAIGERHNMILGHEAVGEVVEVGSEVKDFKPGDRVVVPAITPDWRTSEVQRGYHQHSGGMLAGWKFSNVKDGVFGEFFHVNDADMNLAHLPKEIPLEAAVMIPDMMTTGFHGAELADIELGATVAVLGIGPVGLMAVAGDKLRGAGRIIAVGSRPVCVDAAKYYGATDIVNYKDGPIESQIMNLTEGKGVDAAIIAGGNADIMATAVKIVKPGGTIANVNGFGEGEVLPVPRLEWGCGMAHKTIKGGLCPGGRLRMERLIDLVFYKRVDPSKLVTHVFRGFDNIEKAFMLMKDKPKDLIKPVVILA
Procedure: as §1

Wild-type TeSADH [1] = target: T3, Wild-type TeSADH (Thermoanaerobacter brockii, UniProt P14941, A186D); format: biochemical, Thermoanaerobacter ethanolicus; design: made in house; the wild-type adhB gene sat in plasmid pADHBIM1-kan; conditions: heat-treated crude extracts
T3 sequence (P14941 whole entry A186D): as the sequence (P14941 whole entry A186D) above
Procedure: as §1

Wild-type TeSADH [2] = target: T3, Wild-type TeSADH; conditions: 60° C., 1 min, 50 mM Tris-HCl pH ~8.0 (alcohols) or ~6.5 (ketones), 0.4 mM NADP(H)
Procedure: At least eight substrate concentrations were used for each data set and each set was performed in triplicate.

[3] = enzyme concentration estimated by SDS-PAGE

| Structure (SMILES) | Activity of Y267G TeSADH (Y267G TeSADH) | Specific activity, WT (wild-type (WT) TeSADH; substrate 7.5 mM) | also measured |
| --- | --- | --- | --- |
| CC(O)c1ccccc1 (racemic) [(rac)-1-Phenethyl alcohol] | no detectable activity | – | Specific activity, WT (wild-type (WT) TeSADH; substrate 10 mM): 0.15 U(umol)/mg protein |
| CC(O)Cc1ccccc1 (racemic) [(rac)-1-phenyl-2-propanol] | no detectable activity | – | Specific activity, WT (wild-type (WT) TeSADH; substrate 10 mM): 0.14 U(umol)/mg protein |
| CC(O)CCc1ccccc1 (racemic) [(rac)-4-Phenyl-2-butanol] | no detectable activity | 0.29 U(umol)/mg protein | – |
| CC(=O)CCc1ccccc1 [1a, 4-Phenyl-2-butanone] | – | 5.94 U(umol)/mg protein | Activity of wild-type TeSADH (Wild-type TeSADH [1]): only slight activity |
| CCC(C)O (stereo not drawn) [2-Butanol] | – | 45.27 U(umol)/mg protein | Specific activity of Y267G TeSADH (Y267G TeSADH; [3]): ~33 U/mg; Vmax (app), Wild-type TeSADH (Wild-type TeSADH [2]): 37 U/mg; Km (Wild-type TeSADH [2]; read-out: Km (app), Wild-type TeSADH): 510 µM; Specific activity of wild-type TeSADH (Wild-type TeSADH [1]; [3]): ~41 U/mg |
| CC(=O)Cc1ccccc1 [7a, 1-phenyl-2-propanone] | – | 1.02 U(umol)/mg protein | – |
| CC(=O)c1ccccc1 [Acetophenone] | – | 0.90 U(umol)/mg protein | – |
